Data as given in PubChem BioAssay AID687022 (Broad Institute, 2013).
Calls of active or inactive are those of the source.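 Rule for the calls: active = Fitted curve of melting temperature shift crosses the 1.0 threshold at or below the sample's highest valid tested concentration; inconclusive = Flat fit with activity 30 to 70, or invalid fit; inactive = Opposite direction, flat within 30, or no crossing.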

Target: Fibroblast growth factor 22 (Homo sapiens) (UniProt Q9HCT0)
Assay: binders of human FGF22 protein, dose response, FGF22 synaptogenesis inhibitor project, biophysical, thermal shift, cherry-pick (AID 687022)
Conditions: recombinant FGF22 thermal shift, SYPRO orange melting

Fibroblast growth factor 22 (Homo sapiens), sequence (Q9HCT0 whole entry, looked up): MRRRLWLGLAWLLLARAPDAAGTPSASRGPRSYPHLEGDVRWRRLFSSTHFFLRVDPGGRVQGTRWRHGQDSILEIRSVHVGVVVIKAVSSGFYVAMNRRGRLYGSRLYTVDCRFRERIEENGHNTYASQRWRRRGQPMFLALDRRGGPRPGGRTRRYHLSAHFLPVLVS

Compound | AbsAC1 (concentration giving Tm-shift threshold 1.0)
CO[C@@H](CN(C)S(=O)(=O)c1cccc(Cl)c1)[C@@H](C)CN([C@H](C)CO)S(=O)(=O)c1cccc(Cl)c1 | 10.3 µM
CSCCC(NS(=O)(=O)c1ccc(Cl)c(Cl)c1)C(=O)O (stereo not drawn) | > 38 µM (inactive)
O=C(Nc1cccc(C(F)(F)F)c1)c1cccc(NS(=O)(=O)c2ccc(O)c(C(=O)O)c2)c1 | 2.6 µM
O=S(=O)(Nc1cc(Cl)ccc1-n1cncn1)c1ccc(F)cc1 | 15.2 µM
CCn1c2ccccc2c2cc(/C=N/NC(=O)c3ccncc3)ccc21 | 25 µM
COc1cc(/C=N/NC(=O)CCn2c3ccccc3c3ccccc32)ccc1O | 15.9 µM
NC(=O)c1ccsc1NC(=O)COC(=O)Cc1c[nH]c2ccccc12 | 13.9 µM
COc1ccc(-c2ccc([C@@H]3[C@@H](CO)N4CCCCN(C(=O)c5ccc(F)cc5)C[C@@H]34)cc2)cc1 | 3.54 µM
Cc1[nH]c2ccccc2c1N=Nc1cc(C(=O)O)cc(C(=O)O)c1 | 19.9 µM
O=C(CCNC(=O)c1ccccc1Cl)Nc1nc2ccc(F)cc2s1 | 9.92 µM
O=C(NNC(=O)c1ccccc1F)c1ccc(NS(=O)(=O)c2ccc(F)cc2)cc1 | 18.2 µM
O=C(C[C@H]1CC[C@@H]2[C@H](COC[C@H](O)CN2S(=O)(=O)c2cccc(Cl)c2)O1)Nc1ccccc1 | 1.93 µM
O=C(Nc1ccc(F)cc1)N[C@H]1CC[C@@H](CCn2cc(-c3ccccc3F)nn2)O[C@H]1CO | 10.5 µM
Cc1nc2ccccc2c2oc(C(=O)NCc3ccc4c(c3)OCO4)cc12 | 2.57 µM
Cc1ccc(S(=O)(=O)NCCC(=O)Nc2ccc(C)c(Cl)c2)cc1C | 4.71 µM
Brc1ccccc1/C=N/Nc1ccccn1 | 9.78 µM
CCOC(=O)c1sc(N2C(=O)C(O)=C(C(=O)c3ccco3)C2c2ccc([N+](=O)[O-])cc2)nc1C (stereo not drawn) | 5.28 µM
COc1ccc(-c2csc(NC(=O)CN3C(=O)C4CCCCC4C3=O)n2)c(OC)c1 (stereo not drawn) | 14.7 µM
O=C(Nc1ccc(F)cc1)N[C@@H]1CC[C@H](CCn2cc(-c3ccccc3F)nn2)O[C@H]1CO | 10.3 µM
CC(=O)Nc1ccc(S(=O)(=O)NCCc2c[nH]c3ccc(C)cc23)cc1 | 21.6 µM
O=C(N/N=C/c1ccncc1)c1cc2ccccc2o1 | 6.07 µM

Compound | AbsAC1 (concentration giving Tm-shift threshold 1.0)
O=C(N/N=C/c1c[nH]c2ccccc12)c1cc2ccccc2o1 | 2.71 µM
Cn1cc([N+](=O)[O-])c(C(=O)Nc2ccc3nc(-c4ccccc4)[nH]c3c2)n1 | 16 µM
Oc1ccc(-c2csc(Nc3ccccn3)n2)c(O)c1 | 5.13 µM
CC(C)n1c(=O)c2ccccc2n1Cc1cn(-c2ccc(Cl)cc2)nn1 | 3.24 µM
COc1ccc(S(=O)(=O)Nc2ccc(NC(C)=O)cc2)cc1Cl | 26.6 µM
Nc1nonc1-n1nnc(C(=O)N/N=C/c2cccnc2)c1CSc1ccc(Cl)cc1 | 3.46 µM
O=c1oc(-c2ccc(O)c(O)c2)cc2cc(O)cc(O)c12 | 4.66 µM
COc1ccc(NC(=O)N[C@H]2CC[C@@H](CCn3cc(-c4ccc(OC)cc4)nn3)O[C@@H]2CO)cc1 | > 42 µM (inactive)
O=C(C[C@H]1CC[C@H]2[C@@H](COC[C@@H](O)CN2S(=O)(=O)c2cccc(F)c2)O1)Nc1ccc(-c2ccccc2)cc1 | > 38 µM (inactive)
O=C(Cc1n[nH]c(=O)[nH]c1=O)N/N=C/c1c(O)ccc2ccccc12 | 9.89 µM
COc1nsnc1NS(=O)(=O)c1ccc(NC(=S)NC(=O)c2cccnc2)cc1 | 8.95 µM
C[C@@H]1CN([C@@H](C)CO)C(=O)c2cc(NS(=O)(=O)c3ccc(Cl)cc3)ccc2O[C@@H]1CN(C)S(=O)(=O)c1ccc(F)cc1 | 21.9 µM
CC(=O)Nc1ccc(S(=O)(=O)Nc2nc3ccccc3nc2Nc2cccc(S(N)(=O)=O)c2)cc1 | 12.7 µM
COc1ccc(/C=N/Nc2ccc([N+](=O)[O-])cc2)cc1O | 4.37 µM
COc1ccc(OC)c(Nc2ccc(Nc3cc(OC)ccc3OC)nn2)c1 | 8.4 µM
CC(=O)Nc1cccc(C(=O)N/N=C/c2c[nH]c3ccccc23)c1 | 2.4 µM
Cc1[nH]c2ccccc2c1C(=O)NS(=O)(=O)Nc1ccc(Cl)cc1 | 3.06 µM
O=C(Nc1ccc(F)cc1)N[C@H]1CC[C@@H](CCn2cc(-c3ccccc3F)nn2)O[C@@H]1CO | 7.38 µM
O=C(Nc1ccc(Cl)cc1)N[C@H]1CC[C@H](CCNC(=O)c2cc(Cl)cc(Cl)c2)O[C@@H]1CO | 34.9 µM
COc1ccc(Cc2nnc(NS(=O)(=O)c3ccccc3)s2)cc1 | > 19.5 µM (inactive)
O=[N+]([O-])c1cccc(S(=O)(=O)Nc2ccc(-c3ccc(N4CCOCC4)nn3)cc2)c1 | 7.01 µM

Compound | AbsAC1 (concentration giving Tm-shift threshold 1.0)
O=C(Nc1ccc(S(=O)(=O)NCc2ccccc2)cc1)c1ccccc1[N+](=O)[O-] | 12 µM
O=C(N/N=C/c1c[nH]c2ccccc12)c1ccc(O)c(O)c1 | 3.74 µM
O=C(NCc1ccc(Cl)cc1)c1n[nH]c([N+](=O)[O-])c1Cl | 5.18 µM
O=C(Nc1cc(Cl)cc(Cl)c1)N[C@H]1CC[C@H](CCNS(=O)(=O)c2cccc(F)c2)O[C@@H]1CO | 11 µM
COc1ccccc1NC(=O)N[C@H]1CC[C@H](CCn2cc(-c3ccccc3OC)nn2)O[C@H]1CO | 4.01 µM
CCC(C)n1c(O)c(C(c2ccccn2)c2c(O)n(C(C)CC)c(=S)[nH]c2=O)c(=O)[nH]c1=S (stereo not drawn) | 20.7 µM
CC(C)CC(=O)n1sc(NC(=O)c2ccccc2)nc1=O | 6.61 µM
COC(=O)C[C@H]1CC[C@@H]2[C@@H](COc3ccc(NC(=O)Nc4cccc(C#N)c4)cc3C(=O)N2C)O1 | 7.79 µM
O=C(CNC(=O)c1ccc(S(=O)(=O)N2CCCC2)cc1)N/N=C/c1ccc(F)cc1 | 16.5 µM
C/C(=N\NC(=O)c1cccc(S(=O)(=O)N2CCOCC2)c1)c1ccc(OC(F)F)cc1 | 21.9 µM
Nc1ccccc1N=Nc1ccccc1N | 7.75 µM
O=C(N/N=C/c1ccc(Cl)c(Cl)c1)c1ccc2nc[nH]c2c1 | 2.35 µM
COc1ccc(N2C(=O)C(CC(=O)Nc3ccccc3)N(Cc3ccccn3)C2=S)cc1 (stereo not drawn) | 9.43 µM
N#Cc1cccc(NC(=O)c2ccc(S(=O)(=O)N3CCOCC3)cc2)c1 | 4 µM
C[C@H](CO)N1C[C@H](C)[C@H](CN(C)C(=O)Nc2ccc3c(c2)OCO3)Oc2cc(C3=CCCC3)ccc2S1(=O)=O | 36.2 µM
O=C(CCc1c[nH]c2ccccc12)Nc1ccc(Oc2cccnc2)cc1 | 7.99 µM
O=C(C[C@H]1CC[C@H]2[C@@H](COC[C@H](O)CN2Cc2ccccc2)O1)NCCc1ccccc1 | > 38 µM (inactive)
O=Cc1cc(OCc2ccccc2)ccc1[B-](F)(F)F | 4.64 µM
CN1C(=O)c2cc(NC(=O)c3cccc(F)c3)ccc2OC[C@H]2O[C@@H](CC(=O)N3CCc4ccccc4C3)CC[C@H]21 | 18.4 µM
O=C(NN=Cc1ccc(O)cc1O)c1ccccc1NS(=O)(=O)c1cccs1 | 32.7 µM
CCc1nnc(NS(=O)(=O)c2ccc(NC(=O)c3ccc(Br)cc3)cc2)s1 | 5.81 µM

Compound | AbsAC1 (concentration giving Tm-shift threshold 1.0)
CC(C)Oc1ccc(F)cc1-c1cc(C(=O)NCc2cccs2)[nH]n1 | 8.55 µM
O=C(Nc1ccccc1)O/N=C/c1ccc(F)cc1 | 20.3 µM
COc1ccc(-c2cn(CC[C@@H]3CC[C@@H](NC(=O)Nc4ccc(F)cc4)[C@H](CO)O3)nn2)cc1 | 12.8 µM
Cc1ccc(C(=O)Nc2nc(=O)n(C(=O)C3CC3)s2)cc1 | 11.1 µM
O=C(Nc1ccc(Cl)cc1)N[C@@H]1CC[C@@H](CCNS(=O)(=O)c2ccccc2F)O[C@H]1CO | 5.88 µM
O=C(N/N=C\c1c[nH]c2ccccc12)c1ccc(O)cc1 | 1.85 µM
CCN1C(=O)C(CC(=O)Nc2ccc(OC)cc2)N(Cc2ccc3c(c2)OCO3)C1=S (stereo not drawn) | 4.05 µM
N#CC(C#N)=C1NC(N)=C(C#N)C(c2ccccc2)=C1C#N | 4.02 µM
CC(C)CCNC(=O)c1onc(CSc2ccncc2)c1C(=O)NCCC(C)C | 3.89 µM
CC(C)(C)c1ccc(C2CC2C(=O)N/N=C\c2ccc[nH]2)cc1 (stereo not drawn) | 14.3 µM
O=C(CN(Cc1ccccc1)S(=O)(=O)c1ccccc1)N/N=C/c1ccccc1C(=O)O | 18.9 µM
C[C@@H]1CN([C@H](C)CO)S(=O)(=O)c2ccc(C3=CCCC3)cc2O[C@@H]1CN(C)C(=O)Nc1ccc2c(c1)OCO2 | 20.2 µM
COc1ccc(/C=N/NC(=O)c2ccc(NS(=O)(=O)c3cccs3)cc2)cc1 | 7.28 µM
Cc1ccc(NC(=O)CN2C(=O)NC(Cc3c[nH]c4ccccc34)C2=O)cc1 (stereo not drawn) | 16.2 µM
CC(=O)c1c(C)nc(-c2ccc(OCC(=O)Nc3cccc(C)c3C)cc2)n1O | 29.7 µM
COc1cc(NC(=O)C2CCC(CNS(=O)(=O)c3csc(C(N)=O)c3)CC2)cc(OC)c1 (stereo not drawn) | 5.8 µM
COc1cc(NC(=O)c2csc(N)n2)cc(C(=O)Nc2cccc(C(F)(F)F)c2)c1 | 10.3 µM
Cc1ccccc1-n1c(O)c(/C=N/NC(=O)c2ccccc2O)c(=O)[nH]c1=S | 3.51 µM
CC1([N+](=O)[O-])COP(=O)(NC2CC2)OC1 (stereo not drawn) | 8.33 µM
S=C(Nc1ccc(N2CCOCC2)cc1)Nc1ccc2snnc2c1 | 9.95 µM
